From patent publication USRE39707E1, “Camptothecin derivatives” (Catholic Healthcare West, priority 2001, dated 2007)
Marks after values point to notes of the source that are not given here.

Key:
[1] = tested on: HCT116; test: Cell colony formation assay, HCT116 cells; format: cell-based, human; settings: 72 hours drug exposure
Method: (§1) This example provides directions for growing cells and testing compounds of the invention for their effect on the growth of the cells. All cells were purchased from DCIDC Tumor Repository, NCI, NIH.
The cells were incubated in a CO2 incubator at 37° C. for 5 hours for attachment to the bottom of Petri dishes. Drugs were made fresh in medium at ten times the final concentration, and then 0.3 ml of this stock solution was added to the 2.7 ml of medium in the dish. The cells were then incubated with drugs for 72 hours at 37° C. At the end of the incubation the drug-containing media were decanted, the dishes were rinsed with 4 ml of Hank's Balance Salt Solution (HBSS), 5 ml of fresh medium was added, and the dishes were returned to the incubator for colony formation. The cell colonies were counted using colony counter after incubation for 7 days for HCT116 cells and PC-3 cells and 8 days for VM46 cells, respectively.

[2] = tested on: C3H/HeJ mice; settings: maximum tolerated dose at day 40, C3H/HeJ mice
Method: This example provides directions for performing in vivo toxicity tests of the compounds of the invention on C3H/HeJ mice.
Acute toxicities of the compounds of this invention are evaluated on C3H/HeJ mice (body weight 18-22 g). The MTD40 (maximum tolerated dose at day 40) values were determined by the standard procedure described by Gad and Chengelis (see, for example, “Acute Toxicology Testing,” 2nd Ed., Shayne O. Gad and Christopher P. Chengelis, pp. 186-195 (Academic Press)). In the consecutive type studies, 2 mice were dosed at low and moderate doses of 40 and 100 mg/kg. If no severe and irreversible toxicity (euthanasia is required) occurs at these doses, a new pair of animals was initiated at 180 mg/kg, which is 1.8 times higher than 100 mg/kg. Sequential dosages (about 3 doses on 3 pairs of animals, i.e. 2 mice for each drug dose) were increased by a factor of 1.8 until severe and irreversible toxicity (euthanasia is required) occurred. Then another pair of animals was initiated at the highest nonlethal dosage, and successive dosages were increased by a factor of 1.15. The result of this exercise was two dosages, one apparently nonlethal and the other lethal if severe and irreversible toxicity occurs and euthanasia is required, separated by a factor of 1.15. Six mice were dosed at each dosage. If no severe and irreversible toxicity occurred at the lower dosage and at least one with severe and irreversible toxicity occurred at the higher dose, then the lower dose was considered to be the MTD. The compounds of this invention were administered to C3H/HeJ mice by intraperitoneal injection. Drug toxicity was evaluated on mice checked daily for 45 days.

[3] = tested on: VM46; test: Cell colony formation assay, VM46 cells; format: cell-based; settings: 72 hours drug exposure
Method: as §1
(§2) Four hundred cells (HCT 116, PC-3, NCI/ADR-RES: human breast cancer cells) or five hundred cells (VM46) were plated in 60 mm Petri dishes containing 2.7 ml of medium (modified McCoy's 5a medium) containing 10% fetal bovine serum and 100 units/ml penicillin and […] streptomycin. The cells were incubated in a CO2 incubator at 37° C. for 5 hours for attachment to the bottom of Petri dishes. Drugs were made fresh in medium at ten times the final concentration, and then 0.3 ml of this stock solution was added to the 2.7 ml of medium in the dish. The cells were then incubated with drugs for 72 hours at 37° C. At the end of the incubation the drug-containing media were decanted, the dishes were rinsed with 4 ml of Hank's Balance Salt Solution (HBSS), 5 ml of fresh medium was added, and the dishes were returned to the incubator for colony formation. The cell colonies were counted using colony counter after incubation for 7 days for HCT116 cells and PC-3 cells and 8 days for VM46 cells, respectively.
(§3) Values of ID50 (the drug concentration producing 50% inhibition of colony formation) may be determined for each tested compound. The directions described in this example may be used in other cells, such as DU-145.

[4] = tested on: PC-3; test: Cell colony formation assay, PC-3 cells; format: cell-based, human; settings: 72 hours drug exposure
Method: as §1, §2, §3

[5] = tested on: MTG-B mouse mammary Adenocarcinoma; test: In vivo efficacy in C3H/HeJ mice bearing MTG-B tumors; settings: for T (Surviving days after treatment of MTG-B mouse mammary Adenocarcinoma In C3H/Hej mice): i.p., control mice survived 6 days; for CD/Taxol: ratio of extra days of survival with compound to extra days of survival with taxol, each compared to control; for T/C %: surviving days treated / surviving days control x 100%, control 6 days
Method: This example provides directions for performing in vivo efficacy tests of the compounds of the invention on C3H/HeJ mice bearing MTG-B tumors.
Studies on the compounds of this invention were performed on C3H/HeJ mice bearing […] tumors. […] Treatment was initiated at that time, with the first day of treatment designated as day 0 for calculation and plots. The mice were injected i.p. with thee drug dose levels (⅓, ½, 1×MTD) using both a single injection and the schedule of Q2D×3 (every 2 days for a total of 3 treatments at ⅓ MTD). Control groups of mice bearing 8 mm diameter tumors were treated with vehicle alone. […] When a tumor reached 1.5 g, the mouse bearing the tumor was euthanized. Surviving days measured from day 0 for mice treated with anticancer drugs (T) and surviving days measured from day 0 for control mice (C) were recorded. Tumor growth inhibition values (T/C %) were calculated using the formula T/C %=(surviving days of mice treated with an anticancer drug T/surviving days of control mice C)×100%, as shown in Table II.
The final right-hand column in Table II provides a ratio of the extra days of survival of mice treated with the compounds of the invention (compared to control) to the extra days of survival of mice treated with taxol (compared to control).

Molecule	In Vitro Efficacy: Survival (%) of HCT116 ([1]; 1 nM) [%]	In Vitro Efficacy: Survival (%) of HCT116 ([1]; 10 nM) [%]	In Vivo Toxicity MTD40 (ip, mg/kg) in C3H/Hej Mice [2]	In vitro efficacy: Survival (%) of cells line VM46 ([3]; 1 nM) [%]	In vitro efficacy: Survival (%) of cells line VM46 ([3]; 10 nM) [%]	In vitro efficacy: Survival (%) of cells line PC-3 ([4]; 1 nM) [%]	In vitro efficacy: Survival (%) of cells line PC-3 ([4]; 5 nM) [%]	In Vitro Efficacy: Survival (%) of HCT116 ([1]; 100 nM) [%]	T (Surviving days after treatment of MTG-B mouse mammary Adenocarcinoma In C3H/Hej mice) [5] [days]	CD/Taxol [5]	T/C % [5] [%]
CC[C@@]1(O)C(=O)OCc2c1cc1n(c2=O)Cc2cc3ccccc3nc2-1 [CPT, (S)-4-ethyl-4-hydroxy-1H-pyrano-[3′,4′:6,7]indolizino[1,2-b]quinoline-3,14(4H,12H)-dione, reference compound]	100	73.72	<20** mg/kg	77.64	0	93.85	33.09	–	–	–	–
CCC1(OC(=O)COc2ccc(Cl)cc2C)C(=O)OCc2c1cc1n(c2=O)Cc2cc3ccccc3nc2-1 (stereo not shown) [Example 000127, Camptothecin-20-O-ester of 4-chloro-2-methylphenoxyacetic acid]	86.48	0	>150 mg/kg	47.33	0	88.97	31.46	0	13	2.3	217
CCC1(OC(=O)COc2ccc3c(C)c(Cl)c(=O)oc3c2)C(=O)OCc2c1cc1n(c2=O)Cc2cc3ccccc3nc2-1 (stereo not shown) [Example 000129]	74.73	0	75 mg/kg	28.15	0	88.04	10.31	0	12	2.0	200
CCC1(OC(=O)COc2ccc3ccccc3c2)C(=O)OCc2c1cc1n(c2=O)Cc2cc3ccccc3nc2-1 (stereo not shown) [Example 000224, Camptothecin-20-O-ester of 2-napthoxyacetic acid]	100	0	>150 mg/kg	62.69	0	87.34	37.98	0	7	.3	117
CCC1(OC(=O)COc2ccc(C=O)cc2)C(=O)OCc2c1cc1n(c2=O)Cc2cc3ccccc3nc2-1 (stereo not shown) [Example 000313, Camptothecin-20-O-ester of 4-formylphenoxyacetic acid]	100	0	>150 mg/kg	41.58	0	89.51	21.16	0	9	1.0	150
CCCCOCC(=O)OC1(CC)C(=O)OCc2c1cc1n(c2=O)Cc2cc3ccccc3nc2-1 (stereo not shown) [Example 000316, Camptothecin-20-O-ester of butyloxyacetic acid]	100	0	<150 mg/kg	77.50	0	85.72	54.79	0	–	–	–
CCC1(OC(=O)COc2ccc(C(C)C)cc2)C(=O)OCc2c1cc1n(c2=O)Cc2cc3ccccc3nc2-1 (stereo not shown) [Example 000418, Camptothecin-20-O-ester of 4-isopropylphenoxyacetic acid]	97.56	0	>150 mg/kg	79.17	0	100	78.12	0	–	–	–
CCC1(OC(=O)COc2ccc(OCc3ccccc3)cc2)C(=O)OCc2c1cc1n(c2=O)Cc2cc3ccccc3nc2-1 (stereo not shown) [Example 000425, Camptothecin-20-O-ester of 4-benzyloxyphenoxyacetic acid]	100	0	<150 mg/kg	80.46	0	99.28	71.61	0	–	–	–
CCC1(OC(=O)COc2cccc(CBr)c2)C(=O)OCc2c1cc1n(c2=O)Cc2cc3ccccc3nc2-1 (stereo not shown) [Example 000501, Camptothecin-20-O-ester of 3-bromomethylphenoxyacetic acid]	100	0	<150 mg/kg	86.60	0	96.02	41.77	0	–	–	–
CCC1(OC(=O)COc2ccc(C(=O)O)cc2)C(=O)OCc2c1cc1n(c2=O)Cc2cc3ccccc3nc2-1 (stereo not shown) [Example 000725, Camptothecin-20-O-ester of 4-carboxyphenoxyacetic acid]	100	0	>150 mg/kg	–	–	–	–	0	–	–	–
Camptothecin-20-O-ester of ethylexyacetic acid [Example 000627]	70.44	0	<150 mg/kg	–	–	–	–	0	–	–	–
